Test results as given in patent US6946473B2, “Preparation and use of acetylenic ortho-sulfonamido and phosphinic acid amido bicyclic heteroaryl hydroxamic acids as TACE inhibitors” (priority 1999, dated 2005).

How the values were obtained:
MMP-1 = biological target: T1, MMP-1 (Homo sapiens, UniProt P03956); experiment: MMP-1 inhibition (thiopeptide or fluorescent peptide substrate); format: biochemical
T1 sequence (P03956 100-469): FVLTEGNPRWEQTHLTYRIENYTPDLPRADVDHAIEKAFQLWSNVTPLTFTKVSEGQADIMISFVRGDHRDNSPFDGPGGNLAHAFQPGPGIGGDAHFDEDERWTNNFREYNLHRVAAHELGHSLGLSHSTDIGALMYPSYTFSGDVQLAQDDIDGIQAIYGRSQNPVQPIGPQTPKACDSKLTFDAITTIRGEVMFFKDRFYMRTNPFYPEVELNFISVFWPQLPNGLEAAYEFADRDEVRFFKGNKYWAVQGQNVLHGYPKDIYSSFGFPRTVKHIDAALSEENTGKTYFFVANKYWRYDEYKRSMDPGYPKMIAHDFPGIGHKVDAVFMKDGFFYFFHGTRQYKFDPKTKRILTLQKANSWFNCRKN
Method: The enzyme activity is measured by the rate of the color increase. The thiopeptide substrate is made up fresh as a 20 mM stock in 100% DMSO and the DTNB is dissolved in 100% DMSO as a 100 mM stock and stored in the dark at room temperature. Both the substrate and DTNB are diluted together to 1 mM with substrate buffer (50 mM HEPES pH 7.5, 5 mM CaCl2) before use. The stock of enzyme is diluted with buffer (50 mM HEPES, pH 7.5, 5 mM CaCl2, 0.02% Brij) to the desired final concentration.
For either the thiopeptide or fluorescent peptide test procedures, the slope of the line is calculated and represents the reaction rate. The linearity of the reaction rate is confirmed (r^2>0.85). The mean (x±sem) of the control rate is calculated and compared for statistical significance (p<0.05) with drug-treated rates using Dunnett's multiple comparison test.

Compound	melting point	IC50 (MMP-1)
CC#CCOc1ccc(S(=O)(=O)N(C)c2c(C(=O)NO)cnc3c2c(C)nn3C)cc1 [Example 7, 4-[(4-But-2-ynyloxy-benzenesulfonyl)-methyl-amino]-1,3-dimethyl-1H-pyrazolo[3,4-b]pyridine-5-carboxylic acid hydroxyamide]	189 to 192 °C	
CC#CCOc1ccc(S(=O)(=O)N(C)c2c(C(=O)NO)cnc3onc(C)c23)cc1 [Example 9, 4-[(4-But-2-ynyloxy-benzenesulfonyl)-methyl-amino]-3-methyl-isoxazolo[5,4-b]pyridine-5-carboxylic acid hydroxyamide]		1.91 µM
CC#CCOc1ccc(S(=O)(=O)N(C)c2c(C(=O)NO)cnc3snc(C)c23)cc1 [Example 13, 4-[(4-But-2-ynyloxy-benzenesulfonyl)-methyl-amino]-3-methyl-isothiazolo[5,4-b]pyridine-5-carboxylic acid hydroxyamide]	183 to 184 °C	
